Patent US20250250227A1, “AMINO LIPID COMPOUND, PREPARATION METHOD THEREFOR, COMPOSITION THEREOF AND USE THEREOF” (SHENZHEN SHENXIN BIOTECHNOLOGY CO., LTD., priority 2022, published 2025)

Legend:
[1] = Preparation and characterisation of mRNA-encapsulating lipid nanoparticle (encapsulation efficiency, particle size); assay type: physicochemical; details: LNP encapsulating Fluc mRNA; Lipid:DSPC:CHO-HP:M-DMG-2000 48:10:40.5:1.5
How it was run: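 Fluc mRNA in sodium acetate buffer mixed with ethanolic amino lipid:DSPC:CHO-HP:M-DMG-2000 (48:10:40.5:1.5 molar) by microfluidics, mRNA:lipid mass ratio 1:10, then dialysed 2 h against Tris-8% sucrose and 0.22 μm filtered. Final mRNA 0.2 g/L; particle size and encapsulation efficiency measured.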

Female BALB/c mice [2] = assay: In vivo safety of hEPO mRNA lipid nanoparticle: serum alanine aminotransferase (ALT) enzyme activity; details: hEPO mRNA LNP, 300 μL IV, serum 12 h after injection; FIG. 1
Protocol: A human erythropoietin mRNA (hEPO mRNA)-encapsulating lipid nanoparticle formulation was prepared according to the method as described in Experimental Example 1, with replacing the luciferase mRNA (Fluc mRNA) with human erythropoietin mRNA (hEPO mRNA), with a concentration of hEPO mRNA of 0.2 g/L, a mass ratio of hEPO mRNA to Lipid of 1:10, a particle size of 90-130 nm, and an encapsulation efficiency of above 90% or higher.
Animal preparation: Female BALB/c mice of 6-8 weeks old were selected and raised in an SPF grade breeding room. Animal testing was conducted in strict accordance with the guidelines of national health institutions and animal ethics requirements.
In vivo Delivery: Prior to injection of the test LNP formulations, the LNP formulations were gently and repeatedly inverted to thoroughly mix the formulation samples. A corresponding amount of the formulation samples were aspirated with a 1 ml insulin syringe, and the LNP formulations were injected by tail vein injection (IV), with 5 mice per formulation. Each mouse was injected with 300 μL of the human erythropoietin mRNA (hEPO mRNA)-encapsulating lipid nanoparticle formulation.
Serum acquisition: Blood samples of mice were collected 12 h after injection, placed in tubes without anticoagulants, and naturally coagulated at room temperature for 30-60 min, and then centrifuged at a speed of 3500 rpm for 10 min to obtain the supernatant, which was the serum.
The detection of alanine transaminase was carried out according to instructions of the kit (Nanjing Jiancheng Bioengineering Institute, Catalog. No. C009-2-1), and a standard curve was made using the standard provided in the kit. D-PBS was used in the experiment, which was purchased from Sangon Biotech (Shanghai) Co., Ltd., Catalog No. E607009-0600.
The method of detection of enzyme activity of alanine aminotransferase (ALT) in serum of the mice is as follows:
• (1) Enzymatic reaction: 0, 2, 4, 6, 8 and 10 μL of […] sodium pyruvate standard solution were sequentially added to 5 μL of 0.1 mol/L phosphate buffer, and the volume was supplemented to 25 μL with a matrix solution, and repeatedly aspirating and spitting with a pipette for mixing well; • (2) Addition reaction: 20 μL 2,4-dinitrophenylhydrazine solution was added to all reaction wells in (1), mixed by aspirating and spitting, and then placed in an incubator at 37° C. to react for 20 min; • (3) Developing: 200 μL of 0.4 mol/L NaOH solution was added to all reaction wells in (2) to stop the reaction, mixed by aspirating and spitting, and incubated at room temperature for 15 min. The OD value of each well was measured at 510 nm in a microplate reader; and • (4) Data processing of standard curve: The corresponding absolute OD value for each well was obtained by subtracting the OD value for 0 μL well from the measured OD value for each well, the corresponding ALT Karmen units being 0, 28, 57, 97, 150 and 200 U/L, respectively. The standard curve was obtain by taking the absolute OD value as the abscissa and the corresponding Karmen unit as the ordinate.
• (1) Reagent preparation: an ALT matrix solution was placed in an incubator at 37° C. for preheating; • (2) Enzymatic reaction: 5 μL diluted serum was aspirated and added to a 96-well plate, then 20 μL matrix solution was added to the corresponding sample well and mixed by repeatedly aspirating and spitting to avoid bubbling, and then placed in an incubator at 37° C. for 30 min; • (3) Addition reaction: 20 μL 2,4-dinitrophenylhydrazine was added to all reaction wells in (2), mixed by aspirating and spitting, and then reacted in an incubator at 37° C. for 20 min; • (4) Developing: 200 μL of 0.4 mol/L NaOH solution was added to all reaction wells in (3) to stop the reaction, mixed by aspirating and spitting, and then incubated at room temperature for 15 min. […]

Female BALB/c mice [3] = assay: Humoral immunity test for total binding IgG antibody (ELISA, SARS-COV-2 antigen protein) in serum of immunized mice; assay type: in vivo; details: IN002.5.1 mRNA LNP, 50 μL IM, serum on 14th day after immunization; FIG. 5-6

SMILES | Encapsulation efficiency [1] [%] | ALT enzyme activity (Karmen unit) compared to ALC0315 and SM-102 (Female BALB/c mice [2]) | Humoral immunity effect (IgG titer) compared to ALC0315 (Female BALB/c mice [3])
CCCCCCC(CCCCCC)OC(=O)CCCCCCCCC(CCCCCCCCC(=O)OC(CCCCCC)CCCCCC)OC(=O)N(CCCN(C)C)CC(=O)OCCCC [Compound 270] | 93.46 | significantly lower ALT enzyme activity | better humoral immunity effect
CCCCCCCOC(=O)CN(CCCN(C)C)C(=O)OC(CCCCCCCCC(=O)OC(CCCCCC)CCCCCC)CCCCCCCCC(=O)OC(CCCCCC)CCCCCC [Compound 273] | 87.42 | significantly lower ALT enzyme activity | better humoral immunity effect
CCCCCCOC(=O)CN(CCCN(C)C)C(=O)OC(CCCCCCCCC(=O)OC(CCCCCC)CCCCCC)CCCCCCCCC(=O)OC(CCCCCC)CCCCCC [Compound 272] | 93.96 | significantly lower ALT enzyme activity | –
CCCCCCC(CCCCCC)OC(=O)CCCCCCCCC(CCCCCCCCC(=O)OC(CCCCCC)CCCCCC)OC(=O)N(CCCN(C)C)CCC(=O)OCCCC [Compound 264] | 94.12 | significantly lower ALT enzyme activity | better humoral immunity effect
CCCCCCCOC(=O)CCN(CCCN(C)C)C(=O)OC(CCCCCCCCC(=O)OC(CCCCCC)CCCCCC)CCCCCCCCC(=O)OC(CCCCCC)CCCCCC [Compound 267] | 93.13 | significantly lower ALT enzyme activity | –
